Experimental data published in patent US20240158370A1, “CK1 alpha AND DUAL CK1 alpha / GSPT1 DEGRADING COMPOUNDS” (Innovo Therapeutics, Inc., priority 2022, published 2024).

Columns and labels:
CK1α = molecular target: T1, CK1α (Homo sapiens, UniProt P48729+Q96SW2); experiment: HiBiT degradation assay, CK1α, Procedure A; assay type: cell-based; details: six hours
T1 construct: CSNK1A1-HiBit KI HEK293(LgBit) Cells; host or cells: HEK293(LgBit) knock-in cells
Summary of the method: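 Luminescence from HiBiT lytic detection reports remaining tagged protein after cells sit six hours at 37° C with compound across ten concentrations (10 μM down to 0.005 μM, 0.1% DMSO). A 4-parameter curve fit gives DC50 and Ymin.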

GSPT1 = GSPT1 (Homo sapiens, UniProt P15170+Q96SW2); experiment: HiBiT degradation assay, GSPT1, Procedure B (Molt 4_hGSPT1_HiBIT cells); assay type: cell-based; parameters: Molt 4_hGSPT1_HiBIT N-terminus tagged cells were generated using CRISPR technology; endogenous in cells; host or cells: Molt 4 cells, CRISPR-edited; details: six hours
Description: Molt 4_hGSPT1_HiBIT N-terminus tagged cells were generated using CRISPR technology. Cells were maintained in RPMI media (Thermo Fisher Scientific, Catalog #11875-093) containing 10% Fetal Bovine Serum (Thermo Fisher Scientific, Catalog #16140071) 1% Penicillin-Streptomycin (Thermo Fisher Scientific, Catalog #25200056). Cells were maintained at 37° C. in a 5% CO2 environment.
Compounds were spotted onto Cornin 384-Well, Cell Culture-Treated, Flat-Bottom, Low Flange Microplate (Fisher Scientific, Catalog #07-201-013) using a Tecan D300e digital dispenser. Ten-point dose response curves spanning from 10 μM to 0.005 μM with a 0.1% DMSO tolerance were used.
Cells were centrifuged for 5 minutes at 1200 RPMs. Cell culture media was aspirated off and cells were resuspended with RPMI+10% FBS. Cell density was determined using a Denovix CellDrop BF cell counter. Cell density was adjusted to 1×10^6 cells/ml. 40 μl of cells was added to compound treated tissue culture plates and incubated for six hours at 37° C. After six hours, cell culture plates were removed from tissue culture incubator and cooled to room temperature. 40 μl of Nano-GloHiBiT Lytic Detection Reagent (Promega, Catalog #N3040) was added to each well. Plates were placed on an orbital shaker (600 rpm) for 20 minutes. Luminescence was measured using an Envsion plate reader (Perkin Elmer). IC50 curves and Ymin were generated using a 4-parameter curve fit with GraphPad Prism software (Prism Corporation).
Results from the HiBiT assay (DC50 (nM) and Ymin (% remaining)) are shown below. All CK1α data was generated according to Procedure A. GSPT1 data for Examples 1-600, 603-620 and 703-705 was generated according to Procedure A. GSPT1 data for Examples 601, 621-702 and 706-735 was generated according to Procedure B.

Sequence of GSPT1 (P15170 whole entry): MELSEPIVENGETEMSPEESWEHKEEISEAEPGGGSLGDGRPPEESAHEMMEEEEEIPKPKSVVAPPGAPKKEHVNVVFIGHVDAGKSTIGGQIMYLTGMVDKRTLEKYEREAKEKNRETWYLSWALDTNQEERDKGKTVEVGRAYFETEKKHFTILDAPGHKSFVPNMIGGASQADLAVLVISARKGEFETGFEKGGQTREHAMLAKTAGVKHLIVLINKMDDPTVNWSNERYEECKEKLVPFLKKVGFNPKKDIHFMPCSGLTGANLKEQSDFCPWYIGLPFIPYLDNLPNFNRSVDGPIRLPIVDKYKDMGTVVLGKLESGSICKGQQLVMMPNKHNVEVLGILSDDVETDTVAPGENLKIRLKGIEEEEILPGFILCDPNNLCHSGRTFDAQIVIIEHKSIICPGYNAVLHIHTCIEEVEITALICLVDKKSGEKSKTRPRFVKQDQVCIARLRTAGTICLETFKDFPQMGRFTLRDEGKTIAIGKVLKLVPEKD
Sequence of GSPT1 (Q96SW2 whole entry): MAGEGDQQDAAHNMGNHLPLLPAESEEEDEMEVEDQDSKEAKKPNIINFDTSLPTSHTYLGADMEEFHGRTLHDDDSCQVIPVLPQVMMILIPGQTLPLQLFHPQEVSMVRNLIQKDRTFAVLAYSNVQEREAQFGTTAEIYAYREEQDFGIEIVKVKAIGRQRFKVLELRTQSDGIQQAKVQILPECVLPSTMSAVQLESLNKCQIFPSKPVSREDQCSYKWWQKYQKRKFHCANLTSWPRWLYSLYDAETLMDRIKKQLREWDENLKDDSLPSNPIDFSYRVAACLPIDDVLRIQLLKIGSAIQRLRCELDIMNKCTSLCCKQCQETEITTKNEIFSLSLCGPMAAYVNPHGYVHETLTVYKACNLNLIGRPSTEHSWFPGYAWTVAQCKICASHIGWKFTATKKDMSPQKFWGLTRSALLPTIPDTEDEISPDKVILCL
Sequence of GSPT1 (Q16531 whole entry partner): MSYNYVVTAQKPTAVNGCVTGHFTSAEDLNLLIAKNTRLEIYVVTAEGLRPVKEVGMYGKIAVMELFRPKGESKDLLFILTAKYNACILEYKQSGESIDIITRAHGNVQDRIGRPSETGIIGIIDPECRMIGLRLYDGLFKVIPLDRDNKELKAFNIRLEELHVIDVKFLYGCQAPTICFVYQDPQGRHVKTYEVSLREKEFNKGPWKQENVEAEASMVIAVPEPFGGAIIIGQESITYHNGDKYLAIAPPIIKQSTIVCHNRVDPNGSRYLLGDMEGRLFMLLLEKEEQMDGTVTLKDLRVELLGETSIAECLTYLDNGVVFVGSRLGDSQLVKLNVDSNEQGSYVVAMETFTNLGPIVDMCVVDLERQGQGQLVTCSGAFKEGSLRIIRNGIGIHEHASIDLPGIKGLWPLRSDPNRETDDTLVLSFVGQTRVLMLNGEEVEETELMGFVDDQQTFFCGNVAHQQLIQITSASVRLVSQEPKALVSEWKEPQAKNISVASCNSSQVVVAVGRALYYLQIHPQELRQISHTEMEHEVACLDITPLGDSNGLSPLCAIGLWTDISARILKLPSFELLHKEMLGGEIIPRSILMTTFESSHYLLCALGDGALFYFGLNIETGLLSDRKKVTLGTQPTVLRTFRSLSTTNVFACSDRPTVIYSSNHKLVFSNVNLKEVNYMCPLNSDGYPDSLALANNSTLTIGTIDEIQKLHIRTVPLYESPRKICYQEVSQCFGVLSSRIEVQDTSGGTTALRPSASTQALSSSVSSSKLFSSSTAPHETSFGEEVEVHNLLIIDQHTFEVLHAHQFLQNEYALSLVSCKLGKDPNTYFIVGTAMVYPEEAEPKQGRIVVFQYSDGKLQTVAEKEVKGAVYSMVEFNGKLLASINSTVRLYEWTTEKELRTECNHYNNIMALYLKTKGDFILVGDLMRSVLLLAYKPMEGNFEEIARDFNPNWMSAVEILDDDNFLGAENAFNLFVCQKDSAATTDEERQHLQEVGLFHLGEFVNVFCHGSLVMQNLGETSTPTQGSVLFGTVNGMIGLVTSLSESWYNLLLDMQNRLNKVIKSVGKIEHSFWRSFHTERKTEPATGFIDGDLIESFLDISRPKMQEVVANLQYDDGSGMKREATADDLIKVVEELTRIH
T1 sequence (P48729 whole entry): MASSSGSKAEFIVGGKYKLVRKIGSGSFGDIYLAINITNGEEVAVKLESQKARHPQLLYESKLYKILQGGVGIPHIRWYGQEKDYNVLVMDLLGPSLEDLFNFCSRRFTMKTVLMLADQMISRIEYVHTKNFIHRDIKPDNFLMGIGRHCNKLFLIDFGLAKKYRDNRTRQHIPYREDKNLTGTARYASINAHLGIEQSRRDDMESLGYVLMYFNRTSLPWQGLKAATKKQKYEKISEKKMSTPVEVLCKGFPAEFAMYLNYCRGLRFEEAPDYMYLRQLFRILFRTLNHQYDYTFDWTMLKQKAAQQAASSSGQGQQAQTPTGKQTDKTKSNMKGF
T1 sequence (Q96SW2 whole entry): as the sequence (Q96SW2 whole entry) above
T1 sequence (Q16531 whole entry partner): as the sequence (Q16531 whole entry partner) above

Compound | CK1α Ymin (CK1α) | DC50 (CK1α) | DC50 (GSPT1) | GSPT1 Ymin (GSPT1)
Cn1cc(-c2ccc3c(c2)CN(C2CCC(=O)NC2=O)C3=O)nc1[C@H]1CC[C@H](C(F)(F)F)CC1 (stereo partly drawn) [Example 601, 3-(5-(1-methyl-2-((1r,4r)-4-(trifluoromethyl)cyclohexyl)-1H-imidazol-4-yl)-1-oxoisoindolin-2-yl)piperidine-2,6-dione] | E (E = >25-75% remaining) | ≥ 25 nM | ≥ 25 nM | E (E = >25-75% remaining)
Cn1cc(-c2ccc3c(c2)CN(C2CCC(=O)NC2=O)C3=O)nc1-c1cccc(CO)c1 (stereo not drawn) [Example 636] | C (C = 0-10% remaining) | ≥ 25 nM | ≥ 25 nM | F (F = >75-100% remaining)
Cn1ncc(-c2ccc3c(c2)CN(C2CCC(=O)NC2=O)C3=O)c1C1CCC(F)(F)CC1 (stereo not drawn) [Example 699] | F (F = >75-100% remaining) | ≥ 25 nM | ≥ 25 nM | F (F = >75-100% remaining)
COc1ccc(Cl)c(-c2nc(-c3ccc4c(c3)CN(C3CCC(=O)NC3=O)C4=O)cn2C)c1 (stereo not drawn) [Example 688] | C (C = 0-10% remaining) | < 25 nM | < 25 nM | F (F = >75-100% remaining)
Cn1cc(-c2ccc3c(c2)CN(C2CCC(=O)NC2=O)C3=O)nc1-c1ccc(F)c(C#N)c1 (stereo not drawn) [Example 677] | E (E = >25-75% remaining) | < 25 nM | ≥ 25 nM | –
Cn1cc(-c2ccc3c(c2)CN(C2CCC(=O)NC2=O)C3=O)nc1-c1ccccc1F (stereo not drawn) [Example 656] | E (E = >25-75% remaining) | < 25 nM | ≥ 25 nM | F (F = >75-100% remaining)
Cn1nc(-c2ccc3c(c2)CN(C2CCC(=O)NC2=O)C3=O)nc1N1CCOCC1 (stereo not drawn) [Example 602, 3-(5-(1-methyl-5-morpholino-1H-1,2,4-triazol-3-yl)-1-oxoisoindolin-2-yl)piperidine-2,6-dione] | E (E = >25-75% remaining) | < 25 nM | ≥ 25 nM | F (F = >75-100% remaining)
Cc1nc(-c2ccc3c(c2)CN(C2CCC(=O)NC2=O)C3=O)nn1-c1ccccc1 (stereo not drawn) [Example 712, 3-(5-(5-methyl-1-phenyl-1H-1,2,4-triazol-3-yl)-1-oxoisoindolin-2-yl) piperidine-2,6-dione] | D (D = >10- 25% remaining) | < 25 nM | < 25 nM | F (F = >75-100% remaining)
Cn1cc(-c2ccc3c(c2)CN(C2CCC(=O)NC2=O)C3=O)nc1-c1ccc(CO)cc1 (stereo not drawn) [Example 657] | D (D = >10- 25% remaining) | < 25 nM | ≥ 25 nM | F (F = >75-100% remaining)
Cn1ncc(-c2ccc3c(c2)CN(C2CCC(=O)NC2=O)C3=O)c1C1=CCN(CC(F)(F)F)CC1 (stereo not drawn) [Example 702] | E (E = >25-75% remaining) | ≥ 25 nM | ≥ 25 nM | F (F = >75-100% remaining)

The remaining lines, values ahead:

CK1α Ymin (CK1α) | DC50 (CK1α) | DC50 (GSPT1) | GSPT1 Ymin (GSPT1) | Compound
E (E = >25-75% remaining) | < 25 nM | ≥ 25 nM | F (F = >75-100% remaining) | Cn1cc(-c2ccc3c(c2)CN(C2CCC(=O)NC2=O)C3=O)nc1[C@H]1[C@@H]2COC[C@@H]21 (stereo partly drawn) [Example 716, 3-(5-(2-((1R,5S,6s)-3-oxabicyclo[3.1.0]hexan-6-yl)-1-methyl-1H-imidazol-4-yl)-1-oxoisoindolin-2-yl)piperidine-2,6-dione]
E (E = >25-75% remaining) | < 25 nM | < 25 nM | F (F = >75-100% remaining) | Cc1ccc(-c2nc(-c3ccc4c(c3)CN(C3CCC(=O)NC3=O)C4=O)cn2C)cc1F (stereo not drawn) [Example 675]
C (C = 0-10% remaining) | < 25 nM | ≥ 25 nM | E (E = >25-75% remaining) | Cn1cc(-c2ccc3c(c2)CN(C2CCC(=O)NC2=O)C3=O)nc1-c1ccccc1Cl (stereo not drawn) [Example 639]
C (C = 0-10% remaining) | < 25 nM | ≥ 25 nM | E (E = >25-75% remaining) | Cn1cc(-c2ccc3c(c2)CN(C2CCC(=O)NC2=O)C3=O)nc1-c1ccc2c(c1)OCO2 (stereo not drawn) [Example 680]
F (F = >75-100% remaining) | < 25 nM | ≥ 25 nM | F (F = >75-100% remaining) | Cn1ncc(-c2ccc3c(c2)CN(C2CCC(=O)NC2=O)C3=O)c1C1=CCC(F)(F)CC1 (stereo not drawn) [Example 698]
E (E = >25-75% remaining) | < 25 nM | ≥ 25 nM | F (F = >75-100% remaining) | Cn1cc(-c2ccc3c(c2)CN(C2CCC(=O)NC2=O)C3=O)nc1-c1ccc(CN2CCOCC2)cc1 (stereo not drawn) [Example 668]
E (E = >25-75% remaining) | < 25 nM | < 25 nM | F (F = >75-100% remaining) | Cn1cc(-c2ccc3c(c2)CN(C2CCC(=O)NC2=O)C3=O)nc1C1(C)CCCCC1 (stereo not drawn) [Example 714, 3-(5-(1-methyl-2-(1-methylcyclohexyl)-1H-imidazol-4-yl)-1-oxoisoindolin-2-yl)piperidine-2,6-dione]
C (C = 0-10% remaining) | < 25 nM | ≥ 25 nM | F (F = >75-100% remaining) | CC(=O)Nc1ccc(-c2nc(-c3ccc4c(c3)CN(C3CCC(=O)NC3=O)C4=O)cn2C)cc1 (stereo not drawn) [Example 723]
D (D = >10- 25% remaining) | < 25 nM | < 25 nM | F (F = >75-100% remaining) | Cn1cc(-c2ccc3c(c2)CN(C2CCC(=O)NC2=O)C3=O)nc1-c1ccc(C#N)cc1 (stereo not drawn) [Example 633]
E (E = >25-75% remaining) | < 25 nM | ≥ 25 nM | F (F = >75-100% remaining) | Cn1cc(-c2ccc3c(c2)CN(C2CCC(=O)NC2=O)C3=O)nc1C12CCC(CC1)CC2 (stereo not drawn) [Example 718, 3-(5-(2-(bicyclo[2.2.2]octan-1-yl)-1-methyl-1H-imidazol-4-yl)-1-oxoisoindolin-2-yl)piperidine-2,6-dione]
C (C = 0-10% remaining) | < 25 nM | ≥ 25 nM | F (F = >75-100% remaining) | Cn1cc(-c2ccc3c(c2)CN(C2CCC(=O)NC2=O)C3=O)nc1-c1cccc(C(F)F)c1 (stereo not drawn) [Example 626]
E (E = >25-75% remaining) | < 25 nM | ≥ 25 nM | E (E = >25-75% remaining) | Cn1cc(-c2ccc3c(c2)CN(C2CCC(=O)NC2=O)C3=O)nc1-c1ccsc1 (stereo not drawn) [Example 664]
C (C = 0-10% remaining) | < 25 nM | < 25 nM | F (F = >75-100% remaining) | COc1cc(Cl)ccc1-c1nc(-c2ccc3c(c2)CN(C2CCC(=O)NC2=O)C3=O)cn1C (stereo not drawn) [Example 638]
D (D = >10- 25% remaining) | < 25 nM | ≥ 25 nM | F (F = >75-100% remaining) | Cn1cc(-c2ccc3c(c2)CN(C2CCC(=O)NC2=O)C3=O)nc1-c1ccc(F)cc1F (stereo not drawn) [Example 653]
E (E = >25-75% remaining) | < 25 nM | ≥ 25 nM | F (F = >75-100% remaining) | Cn1cc(-c2ccc3c(c2)CN(C2CCC(=O)NC2=O)C3=O)nc1C12CC3CC(CC(C3)C1)C2 (stereo not drawn) [Example 711, 3-[5-[2-(1-adamantyl)-1-methyl-imidazol-4-yl]-1-oxo-isoindolin-2-yl]piperidine-2,6-dione]
